Where no end group is shown, it is not given here.
System: TGFβ1
Assay: not given
Assay type: cell-based, human
Details: Rp15 1-1 clone without Tregs; data not shown

Row | Compound | increased proliferation on addition of LAP to the indicator clone only [%]
1 | LAP: recombinant latency associated peptide, reverts active TGFβ to a latent, inactive form (R&D systems) | ≤ 20

Same assay, conditions: Tregs + Rp15 1-1, 0.5 µg/ml cognate peptide, HLA-DR3+ APCs, 3 days

Row | Compound | increase of proliferation on addition of LAP to co-cultures of Tregs and indicator clones
2 | LAP: recombinant latency associated peptide, reverts active TGFβ to a latent, inactive form (R&D systems) | over 40%

Target: T1, recombinant human HLA-E*0103 (Homo sapiens, UniProt P13747)
T1 construct: made in house; host or cells: E. coli
Assay: biochemical
Assay type: binding
Details: not given

Row | Compound | IC50 [µM]
3 | CSCC[C@H](NC(=O)[C@@H](N)CCC(N)=O)C(=O)N[C@@H](CCCCN)C(=O)N[C@@H](Cc1ccccc1)C(=O)N[C@@H](Cc1ccc(O)cc1)C(=O)N[C@@H](C)C(=O)N[C@H](C(=O)N[C@@H](C)C(=O)N[C@@H](CC(C)C)C(=O)O)C(C)C [Peptide 5, QMKFYAVAL] | 1.5
4 | EMLTSRGLL-OH [Peptide 37] | > 50
5 | FMTRLGPLL [Peptide 60] | 37
6 | IEPRGAQAL-OH [Peptide 57, IEPRGAQAL] | > 50
7 | LMHYRGELL [Peptide 29] | 20
8 | LPAERAHEL-OH [Peptide 31] | > 50
9 | REPRRGPRL-OH [Peptide 51] | > 50
10 | RMPPLGHEL [Peptide 62] | 4
11 | RPANLAFFL [Peptide 59] | 1.3
12 | VLLPGLPYL [Peptide 50] | 8
13 | VSNLRTGKL-OH [Peptide 27] | > 50
14 | WLPPLLTNL [Peptide 69] | 39
15 | WMCDRAVDL-OH [Peptide 9] | > 50

Same assay, conditions: concentration of peptide reducing fluorescence of standard peptide VMAPC(Fl)TLLL (100 fmol) by 50%; […]; gel filtration HPLC, emission 528 nm; at least two separate experiments; read-out: Binding

Row | Compound | IC50 [µM]
16 | CC[C@H](C)[C@H](N)C(=O)N[C@@H](CCSC)C(=O)N[C@@H](C)C(=O)N[C@@H](CC(N)=O)C(=O)N[C@@H](CCCNC(=N)N)C(=O)N[C@@H](C)C(=O)N[C@@H](CCC(N)=O)C(=O)N[C@H](C(=O)N[C@@H](CC(C)C)C(=O)O)C(C)C [Peptide 3] | 0.4
17 | CC(C)C[C@H](NC(=O)[C@H](CC(C)C)NC(=O)[C@@H]1CCCN1C(=O)[C@H](C)NC(=O)[C@H](CCCCN)NC(=O)[C@H](C)NC(=O)[C@@H]1CCCN1C(=O)[C@H](CC(C)C)NC(=O)[C@@H](N)CCCNC(=N)N)C(=O)O [Peptide 44] | 0.03
18 | CC[C@H](C)[C@H](N)C(=O)N[C@@H](CC(C)C)C(=O)N1CCC[C@H]1C(=O)N[C@@H](CO)C(=O)N[C@@H](CC(=O)O)C(=O)N[C@@H](C)C(=O)N1CCC[C@H]1C(=O)N[C@H](C(=O)N[C@@H](CC(C)C)C(=O)O)C(C)C [Peptide 49] | 0.2
19 | AMAGSIDLL [Peptide 36] | 34
20 | DLPSRLGKI-OH [Peptide 58] | > 50
21 | DMLGRAGGL-OH [Peptide 12] | > 50
22 | EMGRAPLDL-OH [Peptide 43] | > 50
23 | EMVLRADQL-OH [Peptide 11] | > 50
24 | FLAADALVL-OH [Peptide 15] | > 50
25 | FLLPRGLAI-OH [Peptide 54] | > 50
26 | GLDARAYRL-OH [Peptide 19] | > 50
27 | GLDSRAYRL-OH [Peptide 18] | > 50
28 | GMGMVGTAL-OH [Peptide 35, GMGMVGTAL] | > 50
29 | GMNVTAPAL [Peptide 7, GMNVTAPAL] | 8
30 | KMNAKAATL [Peptide 4] | 15
31 | LMGAEADAL-OH [Peptide 17, LMGAEADAL] | > 50
32 | LMGALAVVL [Peptide 26] | 21
33 | PMADIAAAL-OH [Peptide 23, PMADIAAAL] | > 50
34 | PMAPLAPLL [Peptide 20] | 3

Row | Compound | IC50 [µM]
35 | PMKRTALAL [Peptide 6, PMKRTALAL] | 18
36 | QLAPGLQLI-OH [Peptide 46] | > 50
37 | RLANLLPLI [Peptide 48] | 32
38 | RLGRLLNRI-OH [Peptide 56] | > 50
39 | RLRPELAGL [Peptide 52] | 46
40 | RMAATAQVL [Peptide 14] | 2
41 | RSCPRLTIL-OH [Peptide 64] | > 50
42 | SMADRAENL-OH [Peptide 1] | > 50
43 | SMAGRAGQL-OH [Peptide 2] | > 50
44 | TMITFRLRL [Peptide 33] | 2.4
45 | TSADRAVVL [Peptide 28] | 39
46 | VEAFRTRPL-OH [Peptide 16] | > 50
47 | VLPACLGIL [Peptide 67] | 12
48 | VLRPGGHFL [Peptide 68] | 1.8
49 | VMAPDAVRI [Peptide 63] | 31
50 | VMATRRNVL [Peptide 55] | 16
51 | VMMSEIAGL [Peptide 32] | 13
52 | VMTTVLATL [Peptide 34] | 1.8

System: CD8+ T-cells
Assay: not given
Assay type: cell-based, human
Details: not given

Row | Compound | number of BCG vaccinees recognizing the peptide
53 | RLASCRDAL-OH [Peptide 61, RLASCRDAL] | 2

System: CD3+CD8+CD56- T-cells
Assay: not given
Assay type: cell-based, human
Details: 10 PPD responders; recognition = >10% proliferating CD3+CD8+CD56- T-cells

Row | Compound | number of PPD responding adult donors recognizing the peptide
54 | RLASCRDAL-OH [Peptide 61, RLASCRDAL] | not by any

Same assay, conditions: donor 2; PBMCs, peptide 10 µg/ml (PHA 2 µg/ml, PPD 5 µg/ml), IL-7, IL-2 day 7, CFSE read day 10

Row | Compound | percentage of proliferation within CD3+CD8+CD56- cells [%]
55 | FLLPRGLAI-OH [Peptide 54] | 15.8

Same assay, conditions: donor 4; PBMCs, peptide 10 µg/ml (PHA 2 µg/ml, PPD 5 µg/ml), IL-7, IL-2 day 7, CFSE read day 10

Row | Compound | percentage of proliferation within CD3+CD8+CD56- cells [%]
56 | FLLPRGLAI-OH [Peptide 54] | 0.2

Same assay, conditions: donor 6; PBMCs, peptide 10 µg/ml (PHA 2 µg/ml, PPD 5 µg/ml), IL-7, IL-2 day 7, CFSE read day 10

Row | Compound | percentage of proliferation within CD3+CD8+CD56- cells [%]
57 | FLLPRGLAI-OH [Peptide 54] | 1.6

— PMC2829052, “Mycobacterium tuberculosis Peptides Presented by HLA-E Molecules Are Targets for Human CD8^+ T-Cells with Cytotoxic as well as Regulatory Activity” (PLoS Pathogens, 2010)
